# Experimental data published in BindingDB's records for doi:10.1021/acs.jmedchem.6b01196 (National Institute of Biological Sciences, 2017).
# Test: Inhibition of RIP1 in mouse L929 cells assessed as reduction in TNFalpha/z-VAD-FMK-induced necrosis after 6 hrs by Cell Titer-Glo luminescent cell viability assay
row,Structure (SMILES),EC50
1,CCC(C)(C)C(=O)N(O)Cc1ccccc1,27 nM

# Test: Inhibition of RIP1 in human HT-29 cells assessed as reduction in TNFalpha/z-VAD-FMK-induced necrosis after 24 hrs by Cell Titer-Glo luminescent cell viability assay
row,Structure (SMILES),EC50
1,CCC(C)(C)C(=O)N(O)Cc1cc(F)c(F)c(F)c1,49 nM
2,CCC(C)(C)C(=O)N(O)Cc1ccc(F)c(F)c1F,262 nM
3,CCC(C)(C)C(=O)N(O)Cc1ccc(F)cc1F,198 nM
4,CCC(C)(C)C(=O)N(O)Cc1ccc(F)cc1,64 nM
5,CCC(C)(C)C(=O)N(O)Cc1ccccc1,28 nM
6,CCC(C)(C)C(=O)NC1(c2ccccc2)CC1,> 5000 nM
7,CCC(C)(C)C(=O)N(C)C(CO)c1ccccc1 (stereo not given),> 10000 nM
8,CCC(C)(C)C(=O)NC(CO)c1ccccc1 (stereo not given),1080 nM
9,CCC(C)(C)C(=O)N(C)C(C)c1ccccc1 (stereo not given),> 10000 nM
10,CCC(C)(C)C(=O)NC(C)c1ccccc1 (stereo not given),> 10000 nM
11,CC1CCCCN1C(=O)N(C)Cc1cc(F)cc(F)c1F (stereo not given),> 3000 nM
12,CC(C)N(C(=O)N(C)Cc1cc(F)cc(F)c1F)C(C)C,> 3000 nM
13,CC(C)N(C)C(=O)N(C)Cc1cc(F)cc(F)c1F,> 3000 nM
14,CN(Cc1cc(F)cc(F)c1F)C(=O)C1(C)CCCCC1,490 nM
15,CN(Cc1cc(F)cc(F)c1F)C(=O)C1(C(F)(F)F)CCCC1,1230 nM
16,CN(Cc1cc(F)cc(F)c1F)C(=O)C1(C(F)(F)F)CCC1,656 nM
17,CN(Cc1cc(F)cc(F)c1F)C(=O)C1CCC1,8240 nM
18,CN(Cc1cc(F)cc(F)c1F)C(=O)C1(C)CC1,> 10000 nM
19,CN(Cc1cc(F)cc(F)c1F)C(=O)C(C)(C)CO,> 3000 nM
20,COC(C)(C)C(=O)N(C)Cc1cc(F)cc(F)c1F,> 10000 nM
21,CN(Cc1cc(F)cc(F)c1F)C(=O)C(C)(C)C,98 nM
22,CCC(C)(C)C(=O)N(C)Cc1ccn(C)n1,> 10000 nM
23,CCC(C)(C)C(=O)N(C)Cc1cnc(C)s1,> 10000 nM
24,CCC(C)(C)C(=O)N(C)Cc1ccco1,628 nM

row,Structure (SMILES),EC50
1,CCC(C)(C)C(=O)N(C)Cc1ccc(C)s1,378 nM
2,CCC(C)(C)C(=O)N(C)Cc1sccc1C,2530 nM
3,CCC(C)(C)C(=O)N(C)Cc1cccs1,221 nM
4,CCC(C)(C)C(=O)N(C)Cc1cccnc1,1740 nM
5,CCC(C)(C)C(=O)N(C)Cc1ccncc1,> 10000 nM
6,CCC(C)(C)C(=O)N(C)Cc1c(F)cc(F)cc1F,1250 nM
7,CCC(C)(C)C(=O)N(C)Cc1cc(F)ccc1F,36 nM
8,CCC(C)(C)C(=O)N(C)Cc1ccc(F)cc1F,627 nM
9,CCC(C)(C)C(=O)N(C)Cc1ccc(F)cc1,815 nM
10,CCC(C)(C)C(=O)N(C)Cc1cccc(O)c1,> 3000 nM
11,CCC(C)(C)C(=O)N(C)Cc1cccc(Br)c1,1230 nM
12,CCC(C)(C)C(=O)N(C)Cc1cccc(F)c1,72 nM
13,CCC(C)(C)C(=O)N(C)Cc1ccccc1Cl,> 10000 nM
14,CCN(Cc1ccccc1F)C(=O)C(C)(C)CC,> 10000 nM
15,CCC(C)(C)C(=O)N(C)Cc1ccccc1,457 nM
16,CCC(C)(C)C(=O)NCc1cccc(Br)c1,> 10000 nM
17,CCC(C)(C)C(=O)NCc1ccccc1F,898 nM
18,CCC(C)(C)C(=O)NCc1ccccc1,4100 nM
19,CCC(C)(C)C(=O)N(O)Cc1cc(F)cc(F)c1F,74 nM
20,CCC(C)(C)C(=O)N(O)Cc1ccc(F)c(F)c1,56 nM
21,CCC(C)(C)C(=O)N(C)C(C)(C)c1ccccc1,> 10000 nM
22,CCC(C)(C)C(=O)NC(C)(C)c1ccccc1,> 10000 nM
23,CC1CCCC(C)N1C(=O)N(C)Cc1cc(F)cc(F)c1F (stereo not given),1530 nM
24,CCC(C)(C)C(=O)N(C)Cc1cc(C)c(C)s1,1310 nM

# Test: as above
# Remark: another data set of the same source
row,Structure (SMILES),EC50
1,CCC(C)(C)C(=O)N(C)Cc1ccccc1F,125 nM
2,CCC(C)(C)C(=O)N(C)Cc1cc(F)cc(F)c1F,12 nM
3,CCC(C)(C)C(=O)N(C)Cc1cccc(Cl)c1,628 nM
4,CCC(C)(C)C(=O)N(C)Cc1cccc(F)c1F,58 nM
5,CCC(C)(C)C(=O)NCc1ccccc1Br,8560 nM
6,CCC(C)(C)C(=O)N(C)Cc1ccncc1F,> 10000 nM
